Assay results taken from patent publication US10093696B2, “Nitric oxide donating carnosine compounds” (NICOX SCIENCE IRELAND, priority 2014, dated 2018).

Key:
[1] = tested on: hypertonic saline-induced IOP increase in rabbits; test: Intraocular pressure (IOP) lowering activity in hypertonic saline-induced IOP increase in rabbits; assay type: in vivo, New Zealand White rabbits; conditions: for IOP change 60 minutes / IOP change 120 minutes / IOP change 240 minutes: single topical application; for IOP reduction after single application (in words): compared to ISMN and timolol
Experimental: The present study evaluated the intraocular pressure lowering effect of single applications of two compounds of the inventions (compound (1a) and compound (4a)) and two reference compounds at the same concentrations and in rabbits with induced IOP increase.
Adult male New Zealand White rabbits weighting 1.8-2.0 Kg were used in the experiments.
The transient increase in IOP was induced by the injection of 0.1 ml of hypertonic saline solution (5%) into the vitreous bilaterally (Krauss et al., 2011, Orihashi et al., 2005).
(§1) IOP was measured using a Tono-Pen XL prior to hypertonic saline injection (basal) and at 30, 60, 120 and 240 min thereafter. Vehicle (5% cremophor-EL; 0.3% DMSO; 0.2 mg/ml Benzalkonium chloride in PBS pH 6.0) or compound (1.0%) was instilled as eye drops immediately after hypertonic saline injection. Eyes were randomly assigned to different treatment groups. Vehicle and compounds were directly instilled into the conjunctiva pocket at the desired doses. One drop of 0.4% oxybuprocaine hydrochloride (Novesine, Sandoz) was instilled in each eye immediately before each set of pressure measurements.
Results are reported in Table 1 and they are expressed as IOP change (at 60, 120 and 240 minutes following topical administration) versus vehicle and versus IOP at basal before hypertonic saline injection.
Hypertonic Saline-Induced IOP Increase Rabbit Model
as §1, with “compound (9)” for “compound”, “compound (9)” for “compounds”
Experimental data are reported in Table 3 and they are expressed as IOP change (at 60, 120 and 240 minutes following topical administration) versus vehicle and versus IOP at basal before hypertonic saline injection
The hypotensive effects of compound (9) and of ISMN and timolol were evaluated using the same transient ocular hypertensive rabbit model, see Example 9, but in different groups of hypertensive rabbits.

[2] = tested on: ocular normotensive rabbits; test: Intraocular pressure (IOP) lowering activity in ocular normotensive New Zealand White rabbits; assay type: in vivo, New Zealand White (NZW) rabbits; conditions: 1% eye drops; for IOP change 60 minutes / IOP change 120 minutes / IOP change 180 minutes / IOP change 240 minutes / IOP change 30 minutes / IOP change 300 minutes: single topical application; for duration of IOP reduction after single application (in words): compared to the reference compound
Experimental: The present study evaluated the long lasting intraocular pressure lowering effect of single application of two compounds of the inventions (compound (1a) and compound (4a)) with respect to a prior art compound, in an ocular normotensive animal model (rabbit) at the same concentrations.
Adult male New Zealand White (NZW) rabbits weighting 1.8-2.0 Kg were used in the experiments.
(§2) IOP was measured using a pneumatonometer 30 CLASSIC™ before topical application (basal) and at different time points (30, 60, 120, 240 and 300 min) thereafter. Vehicle (5% cremophor-EL; 0.3% DMSO; 0.2 mg/ml bac in PBS pH 6.0) or compound of the invention were instilled as eye drops into the conjunctiva pocket. Eyes were randomly assigned to different treatment groups. One drop of 0.4% oxybuprocaine hydrochloride (Novesine, Sandoz) was instilled in each eye immediately before each set of pressure measurements. Results are reported in Table 2 and they are expressed as IOP change (at 60, 120, 180 and 240 minutes following topical administration) versus vehicle and versus IOP at basal.
Ocular Normotensive Rabbit Model
as §2, with “(9) (1%)” for “of the invention”, “measurements.” for “measurements. Results are reported in Table 2 and they are expressed as IOP change (at 60, 120, 180 and 240 minutes following topical administration) versus vehicle and versus IOP at basal.”
Experimental data are reported in Table 4 and they are expressed as IOP change (at 60, 120, 180 and 240 minutes following topical administration) versus vehicle and versus IOP at basal.
The IOP-lowering effects of compound (9) and of the Reference compound were assessed in the same normotensive rabbit model, see Example 10, but using different groups of […] rabbits.

[3] = Table 1, conc. 1% eye drops, versus vehicle and versus basal IOP
[4] = Table 3, 1% eye drops, versus vehicle and basal, references from different groups of rabbits (Example 9)
[5] = Table 2, versus vehicle and versus basal IOP
[6] = Table 4, versus vehicle and basal, reference from different groups of rabbits (Example 10)

Compound	IOP change 60 minutes [1, 3]	IOP change 120 minutes [1, 3]	IOP change 240 minutes [1, 3]	IOP change 60 minutes [1, 4]	IOP change 120 minutes [1, 4]	IOP change 240 minutes [1, 4]	IOP change 60 minutes [2, 5]	IOP change 120 minutes [2, 5]	IOP change 180 minutes [2, 5]	IOP change 240 minutes [2, 5]	IOP change 30 minutes [2, 6]	IOP change 60 minutes [2, 6]	IOP change 120 minutes [2, 6]	IOP change 180 minutes [2, 6]	IOP change 240 minutes [2, 6]	IOP change 300 minutes [2, 6]	IOP reduction after single application (in words) ([1]; 1% eye drops)	duration of IOP reduction after single application (in words) [2]
O=[N+]([O-])O[C@@H]1CO[C@H]2[C@@H]1OC[C@@H]2O [ISMN, Isosorbide mononitrate, reference compound]	−0.7 ± 2.9 mmHg	−6.6 ± 1.8 mmHg	−1.2 ± 1.3 mmHg	−0.7 ± 2.9 mmHg	−6.6 ± 1.8 mmHg	−1.2 ± 1.3 mmHg	–	–	–	–	–	–	–	–	–	–	–	–
CC(C)(C)NC[C@H](O)COc1nsnc1N1CCOCC1 [Timolol, reference compound]	−5.7 ± 1.4 mmHg	−8.4 ± 1.2 mmHg	0.2 ± 1.2 mmHg	−5.7 ± 1.4 mmHg	−8.4 ± 1.2 mmHg	0.2 ± 1.2 mmHg	–	–	–	–	–	–	–	–	–	–	–	–
NCCC(=O)N[C@@H](Cc1c[nH]cn1)C(=O)NC[C@H](CO[N+](=O)[O-])O[N+](=O)[O-].O=C(O)C(F)(F)F [Ref. compound, (R)-3-((S)-2-(3-aminopropanamido)-3-(1H-imidazol-4-yl)propanamido)propane-1,2-diyl dinitrate 2,2,2-trifluoroacetate, reference compound]	–	–	–	–	–	–	−0.8 ± 0.6 mmHg	−0.3 ± 0.4 mmHg	−0.2 ± 0.4 mmHg	−0.05 ± 0.6 mmHg	−1.0 ± 0.5 mmHg	−0.8 ± 0.6 mmHg	−0.3 ± 0.4 mmHg	−0.2 ± 0.4 mmHg	−0.05 ± 0.6 mmHg	−0.7 ± 0.4 mmHg	–	–
O=C(CCCCCO[N+](=O)[O-])NCCC(=O)N[C@@H](Cc1c[nH]cn1)C(=O)O [Compound (4a), (S)-3-(1H-imidazol-4-yl)-2-(3-(6-(nitrooxy)hexanamido)propanamido) propanoic acid 2,2,2-trifluoroacetate]	−7.6 ± 1.6 mmHg	−9.0 ± 1.2 mmHg	−5.3 ± 0.6 mmHg	–	–	–	−1.6 ± 0.4 mmHg	−1.5 ± 0.6 mmHg	−1.4 ± 0.6 mmHg	−0.9 ± 0.6 mmHg	–	–	–	–	–	–	significant IOP reduction	significantly longer IOP reduction
COC(=O)[C@H](Cc1c[nH]cn1)NC(=O)CCNC(=O)CCC[C@@H](CO[N+](=O)[O-])O[N+](=O)[O-] [Compound (9), (S)-methyl 2-(3-((S)-5,6-bis(nitrooxy)hexanamido)propanamido)-3-(1H-imidazol-4-yl)propanoate]	–	–	–	−7.2 ± 1.0 mmHg	−6.4 ± 1.0 mmHg	−3.9 ± 0.9 mmHg	–	–	–	–	−1.6 ± 0.2 mmHg	−1.0 ± 0.4 mmHg	−1.3 ± 0.2 mmHg	−1.3 ± 0.3 mmHg	−1.5 ± 0.4 mmHg	−1.5 ± 0.4 mmHg	significant IOP reduction	long lasting IOP-lowering effect
COC(=O)[C@H](Cc1c[nH]cn1)NC(=O)CCNC(=O)CCCCO[N+](=O)[O-].Cl [Compound (1a), (S)-methyl-3-(1H-imidazol-4-yl)-2-(3-(5-(nitrooxy)pentanamido)propanamido)propanoate hydrochloride]	−11.4 ± 0.8 mmHg	−12.9 ± 0.4 mmHg	−7.4 ± 0.5 mmHg	–	–	–	−1.2 ± 1.0 mmHg	−1.5 ± 0.9 mmHg	−1.9 ± 0.9 mmHg	−1.7 ± 1.2 mmHg	–	–	–	–	–	–	significant IOP reduction	significantly longer IOP reduction
